Assay results from patent US20100256086A1, “NON-HYDROLYZABLE NUCLEOSIDE DI- OR TRI-PHOSPHATE DERIVATIVES AND USES THEREOF” (priority 2007, published 2010).

Assays:
[1] = pKa and degree of ionization of terminal phosphonate/phosphate; type: physicochemical; conditions: assay conditions, pH 7.4
[2] = test system: perfused rat pancreas; conditions: cited from earlier work
[3] = molecular target: T1, rat P2Y6 (Rattus norvegicus, UniProt Q63371); test: Intracellular calcium measurement ([Ca2+]i, fura-2) in 1321N1 astrocytoma cells; type: cell-based; set-up: key to Compound-induced activation of [Ca2+], P2Y6, response class: sr = slight response at 100 μM; nr = no response; conditions: for agonistic effect on P2Y6R: at 100 μM
T1 construct: expressed in transfected cells
T1 sequence (Q63371 whole entry): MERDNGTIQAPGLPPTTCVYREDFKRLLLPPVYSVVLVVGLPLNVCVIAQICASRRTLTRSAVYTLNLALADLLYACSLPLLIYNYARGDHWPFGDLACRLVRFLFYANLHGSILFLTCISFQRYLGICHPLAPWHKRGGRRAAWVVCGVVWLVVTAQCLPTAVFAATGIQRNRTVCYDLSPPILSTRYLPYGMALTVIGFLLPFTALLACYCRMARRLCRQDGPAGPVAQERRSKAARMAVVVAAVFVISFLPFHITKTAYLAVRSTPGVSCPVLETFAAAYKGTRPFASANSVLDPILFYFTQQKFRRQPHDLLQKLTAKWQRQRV
Description: (§1) Human 1321N1 astrocytoma cells stably expressing the turkey P2Y1, human P2Y2, human P2Y4 or rat P2Y6 were grown in Dulbecco's modified Eagle's medium containing 5% (v/v) fetal bovine serum, 100 units/ml penicillin, 100 μg/ml streptomycin and 500 μg/ml Geneticin (G-418, Life Technologies, Inc). Changes in the intracellular free calcium concentration, [Ca^2+]i were detected by dual-excitation spectrofluorometric analysis of cell suspensions loaded with fura-2, as previously described (Garrad et al., 1998; Grynkiewicz et al., 1985). Cells were assayed in 10 mM Hepes-buffered saline (pH 7.4) containing 1 mM CaCl2 and 1 mM MgCl2. The cells were pelleted in a microfuge and resuspended in 2 ml of buffer. Concentration-response data were analyzed with the Prism curve fitting program (GraphPAD Software, San Diego, Calif.). Three experiments were conducted on separate days for each P2Y receptor subtype.
(§2) The activities of compounds 2, 4B, 17, 18, 19A, 21 (isomers A and B) were examined at the G protein-coupled P2YRs, P2Y1, P2Y2, P2Y4 and P2Y6 expressed in human 1321N1 astrocytoma cells, based on intracellular calcium measurements, as described in Experimental above. In particular, the activity of compound 2, 4B and 19 was examined at P2Y1R, P2Y2R, P2Y4R and P2Y6R, and the activity of compounds 17, 18 and 21 was examined at P2Y1R only. The experiments were conducted by Prof. Gary A. Weisman from Columbia-Missouri University, Columbia, Mo., USA.

[4] = molecular target: T2, turkey P2Y1 (Meleagris gallopavo, UniProt P49652); test: as above; type: cell-based; conditions: for EC50: human 1321N1 astrocytoma cells expressing turkey P2Y1, read-out: Compound-induced activation of [Ca2+] EC50, P2Y1; for activities at the P2YRs tested: P2Y1, P2Y2, P2Y4 and P2Y6 tested
T2 construct: expressed in transfected cells
T2 sequence (P49652 whole entry): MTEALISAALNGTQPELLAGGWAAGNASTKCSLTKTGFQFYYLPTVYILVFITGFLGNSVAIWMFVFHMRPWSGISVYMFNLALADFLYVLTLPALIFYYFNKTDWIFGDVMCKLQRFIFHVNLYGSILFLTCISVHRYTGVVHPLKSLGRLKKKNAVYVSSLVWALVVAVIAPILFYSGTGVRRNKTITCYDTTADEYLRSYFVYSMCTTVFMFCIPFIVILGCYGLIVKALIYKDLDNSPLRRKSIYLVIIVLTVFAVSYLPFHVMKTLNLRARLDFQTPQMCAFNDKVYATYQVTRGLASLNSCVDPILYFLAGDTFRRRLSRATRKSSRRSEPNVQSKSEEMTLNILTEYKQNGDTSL
Description: as §1, §2

[5] = test system: ecto-nucleotidases; conditions: muscle strips preparations, 60 min incubation; cited from earlier work
[6] = molecular target: T3, human P2Y2 (Homo sapiens, UniProt P41231); test: Intracellular calcium measurement ([Ca2+]i, fura-2) in 1321N1 astrocytoma cells; type: cell-based; set-up: key to Compound-induced activation of [Ca2+], P2Y2, response class: sr = slight response at 100 μM; nr = no response
T3 construct: expressed in transfected cells
T3 sequence (P41231 whole entry): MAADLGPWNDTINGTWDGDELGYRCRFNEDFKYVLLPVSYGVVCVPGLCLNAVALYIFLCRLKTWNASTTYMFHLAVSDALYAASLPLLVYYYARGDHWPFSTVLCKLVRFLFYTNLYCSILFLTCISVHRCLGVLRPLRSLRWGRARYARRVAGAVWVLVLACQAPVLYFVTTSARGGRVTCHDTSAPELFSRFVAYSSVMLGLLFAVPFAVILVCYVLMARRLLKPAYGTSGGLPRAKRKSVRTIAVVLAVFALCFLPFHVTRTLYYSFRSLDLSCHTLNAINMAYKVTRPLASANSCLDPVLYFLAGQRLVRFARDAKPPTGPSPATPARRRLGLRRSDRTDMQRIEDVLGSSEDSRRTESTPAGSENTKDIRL
Description: as §1, §2

[7] = Stability in human blood serum, Method A; type: in vitro ADME; conditions: human blood serum and RPMI-1640, 37° C.
Description: (§3) Preparation of the Human Blood Serum: Blood Taken from Healthy Volunteers was obtained from a blood bank (Tel-Hashomer hospital, Israel), stored for 12 h at 4° C. and centrifuged in plastic tubes at 1500 g for 15 min at room temperature. The serum was separated and stored at −80° C.
The assay mixture, containing a 40 mM nucleotide derivative solution in deionized water (4.5 μl), human blood serum (180 μl) and RPMI-1640 (540 μl), was incubated at 37° C. for 1, 4, 8, 16, 24, 48, 72 and 96 h. The samples were then treated with 0.6 M of hydrochloric acid (430 μl), centrifuged for 2 min (13,000 g, 4° C.), neutralized by addition of 4 M of KOH, centrifuged for 2 min (13,000 g, 4° C.) and freeze-dried. The stability of the nucleotide was evaluated by HPLC for monitoring possible dephosphorylation products. The mixture was separated on a Gemini analytic column (5u C-18 110A, 150×4.60 mm) with gradient elution [0.01 M KH2PO4 pH=4.5 (A)/acetonitrile (B), 100:0→60:40, A:B, 20 min for 2, 3A and 3B; 100:0→95:5, A:B, 10 min for ATP] and flow rate of 1 ml/min. The hydrolysis rate was determined by measuring the change in the integration of the respective HPLC peaks with time.

[8] = molecular target: T4, human P2Y4 (Homo sapiens, UniProt P51582); test: Intracellular calcium measurement ([Ca2+]i, fura-2) in 1321N1 astrocytoma cells; type: cell-based; set-up: key to Compound-induced activation of [Ca2+], P2Y4, response class: sr = slight response at 100 μM; nr = no response; conditions: 1321N1 cells expressing human P2Y4
T4 construct: expressed in transfected cells
T4 sequence (P51582 whole entry): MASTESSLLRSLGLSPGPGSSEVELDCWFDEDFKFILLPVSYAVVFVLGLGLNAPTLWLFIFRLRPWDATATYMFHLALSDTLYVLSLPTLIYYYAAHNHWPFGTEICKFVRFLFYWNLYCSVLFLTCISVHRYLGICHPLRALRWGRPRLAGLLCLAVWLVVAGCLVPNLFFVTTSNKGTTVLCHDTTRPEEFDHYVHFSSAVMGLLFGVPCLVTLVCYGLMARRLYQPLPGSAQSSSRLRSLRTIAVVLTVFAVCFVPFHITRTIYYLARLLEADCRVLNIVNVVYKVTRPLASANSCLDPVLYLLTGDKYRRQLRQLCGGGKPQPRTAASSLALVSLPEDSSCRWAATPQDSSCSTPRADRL
Description: as §1, §2

[9] = cited from earlier work
[10] = Stability in human blood serum, Method B; type: in vitro ADME; conditions: human blood serum and RPMI-1640, 37° C.
Description: as §3
The assay mixture, containing a 40 mM nucleotide derivative solution in deionized water (4.5 μl), human blood serum (180 μl) and RPMI-1640 (540 μl), was incubated at 37° C. for 1, 4, 8, 16, 24, 48, 72, 96, 120 and 144 h. The samples were then heated to 80° C. for 30 min, treated with CM Sephadex (1-2 mg) for 2 h, centrifuged for 6 min (12,000 rpm) and extracted with chloroform (2×500 μl). The aqueous layer was freeze-dried. The stability of the nucleotide was evaluated by HPLC for monitoring possible dephosphorylation products. The mixture was separated on a Gemini analytic column (5u C-18 110A, 150×4.60 mm) with gradient elution [100 mM TEAA, pH 7 (A)/MeOH (B), 79:21, A:B, 15 min for 4A and 4B; 100 mM TEAA, pH 7 (A)/acetonitryl (B), A:B, 10 min, 100:0→90:10 A:B 10 min, 90:10→80:20 A:B 4 min, 80:20 A:B 1 min for ATP] and flow rate of 1 ml/min. The hydrolysis rate was determined by measuring the change in the integration of the respective HPLC peaks with time.

[11] = molecular target: T5, calf intestine alkaline phosphatase (Bos taurus, UniProt P19111); test: Enzymatic stability to alkaline phosphatase; type: in vitro ADME; conditions: 37° C., as in Example 6
T5 construct: purchased Fermentas Inc., Glen Burnie, Md
T5 sequence (P19111 20-506): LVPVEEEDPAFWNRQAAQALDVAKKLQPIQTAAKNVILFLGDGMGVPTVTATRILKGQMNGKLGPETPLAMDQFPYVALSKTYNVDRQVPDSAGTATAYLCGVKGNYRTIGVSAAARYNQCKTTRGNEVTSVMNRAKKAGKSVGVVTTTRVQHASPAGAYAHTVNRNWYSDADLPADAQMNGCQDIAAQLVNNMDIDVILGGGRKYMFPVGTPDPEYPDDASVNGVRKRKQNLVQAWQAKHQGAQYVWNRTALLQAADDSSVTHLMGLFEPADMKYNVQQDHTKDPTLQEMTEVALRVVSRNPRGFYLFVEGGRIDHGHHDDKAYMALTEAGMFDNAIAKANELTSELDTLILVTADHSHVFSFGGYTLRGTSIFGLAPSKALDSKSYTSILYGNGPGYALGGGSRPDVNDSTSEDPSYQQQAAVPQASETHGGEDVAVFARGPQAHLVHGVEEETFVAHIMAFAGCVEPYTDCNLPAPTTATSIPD
Description: Enzyme activity was measured by the release of p-nitrophenol from the nucleotide derivatives using a UV-vis spectrophotometer at 405 nm. Relative activity and resistance of nucleotides to enzymatic hydrolysis were determined at 37° C. Briefly, 32.5 μl of nucleotide derivative (77 μg/ml in 0.1 M Tris-HCl and 0.1 M MgCl2, pH 7.5) and 6 μl of deionized water were incubated with calf intestine alkaline phosphatase (Fermentas Inc., Glen Burnie, Md., 1 unit/μl, 6.25 μl at 37° C. final pH=9.8). After 30 min, the reaction was stopped by incubation at 80° C. for 30 min. The stability of the nucleotide derivative was evaluated by HPLC to monitor possible dephosphorylation products. The mixture was separated on a Gemini analytic column (5u C-18 110A, 150×4.60 mm) using gradient elution with Solvent System I (see Example 1) at 90:10 to 70:30 A:B for 3A and 3B, and 82:18 to 50:50 for 4A, 4B and 2 over 20 min and at a flow rate of 1 ml/min.

[12] = Stability in human blood serum (Example 10)
[13] = 1321N1 cells expressing human P2Y2
[14] = 1321N1 cells expressing rat P2Y6

CSc1nc(N)c2ncn([C@@H]3O[C@H](COP(=O)(O)OP(=O)(O)O)[C@@H](O)[C@H]3O)c2n1 [Compound 2-MeS-ADP, 2-MeS-ADP, reference compound]
fraction ionized [1]: 91%

2-MeS-ATP-α-B [Compound 1]
enhancement of insulin secretion as compared to basal secretion [2]: 9 fold | EC50 ([2]; read-out: EC50 of insulin secretion): 0.028 µM

O=c1ccn([C@@H]2O[C@H](COP(=O)(O)OP(=O)(O)O)[C@@H](O)[C@H]2O)c(=O)[nH]1 [UDP, reference compound]
EC50 ([3]; 1321N1 cells expressing rat P2Y6, read-out: Compound-induced activation of [Ca2+] EC50, P2Y6): 0.2 ± 0.06 µM

BP(=O)(OC[C@H]1O[C@@H](n2cnc3c(N)nc(SC)nc32)[C@H](O)[C@@H]1O)OP(=O)(O)C(Cl)(Cl)P(=O)(O)O (single isomer, unassigned) [Compound 21A, 2MeS-adenosine-β,γ-CCl2-5′-O-(1-boranotriphosphate)]
EC50 [4]: 0.57 µM

CSc1nc(N)c2ncn(C3OC(COP(=O)(O)OP(=O)(O)CP(=O)(O)O)C(O)C3O)c2n1 (stereo not drawn) [Compound 2, β,γ-CH2-2MeS-adenosine-5′-triphosphate]
degradation by ecto-nucleotidases [5]: no degradation | activity at P2Y2R, in words [6]: inactivity | Compound-induced activation of [Ca2+], P2Y2, response class [6, 13]: nr | fraction ionized [1]: 9% | half-life in human blood serum [7]: 12.7 h | Compound-induced activation of [Ca2+], P2Y6, response class [3, 14]: sr | agonistic effect on P2Y6R [3]: slight agonistic effect | Compound-induced activation of [Ca2+], P2Y4, response class [8]: nr | EC50 [4]: 0.08 µM

BP(=O)(OC[C@H]1O[C@@H](n2cnc3c(N)nc(SC)nc32)[C@H](O)[C@@H]1O)OP(=O)(O)C(Cl)(Cl)P(=O)(O)O (single isomer, unassigned) [Compound 21, 2MeS-adenosine-β,γ-CCl2-5′-O-(1-boranotriphosphate)]
pKa value of the terminal phosphonate [9]: about 6.7

B[P@](=O)(OC[C@H]1O[C@@H](n2cnc3c(N)ncnc32)[C@H](O)[C@@H]1O)OP(=O)(O)CP(=O)(O)O (single isomer, unassigned) [Compound 3A, Adenosine-β,γ-CH2-5′-O-(1-boranotriphosphate)]
half-life in human blood serum [7]: 14.1 h | activity at P2Y1R, in words [4]: practically inactive | activities at the P2YRs tested [4]: insignificant activities

Nc1ncnc2c1ncn2[C@@H]1O[C@H](COP(=O)(O)OP(=O)(O)CP(=O)(O)O)[C@@H](O)[C@H]1O [β,γ-CH2-ATP]
degradation by ecto-nucleotidases [5]: no degradation

BP(=O)(OC[C@H]1O[C@@H](n2cnc3c(N)nc(SC)nc32)[C@H](O)[C@@H]1O)OP(=O)(O)C(Cl)(Cl)P(=O)(O)O (single isomer, unassigned) [Compound 21B, 2MeS-adenosine-β,γ-CCl2-5′-O-(1-boranotriphosphate)]
EC50 [4]: 1.2 µM

Nc1ncnc2c1ncn2[C@@H]1O[C@H](COP(=O)(O)OP(=O)(O)OP(=O)(O)O)[C@@H](O)[C@H]1O [ATP, reference compound]
degradation by ecto-nucleotidases [5]: completely dephosphorylated | half-life in human blood serum [10]: 7.7 h | half-life in human blood serum [7]: 3.6 h

O=c1ccn([C@@H]2O[C@H](COP(=O)(O)OP(=O)(O)OP(=O)(O)O)[C@@H](O)[C@H]2O)c(=O)[nH]1 [UTP, reference compound]
EC50 ([6]; 1321N1 cells expressing human P2Y2, read-out: Compound-induced activation of [Ca2+] EC50, P2Y2): 0.64 ± 0.25 µM | EC50 ([8]; read-out: Compound-induced activation of [Ca2+] EC50, P2Y4): 0.48 ± 0.31 µM

CSc1nc(N)c2ncn([C@@H]3O[C@H](COP(=O)(O)C(F)(F)P(=O)(O)O)[C@@H](O)[C@H]3O)c2n1 [Compound 18, 2-MeS-adenosine-5′-difluoromethylene-diphosphate]
pKa value of the terminal phosphonate [9]: about 6.7 | EC50 [4]: 0.98 µM

[BH3-]P(=O)(OC[C@H]1O[C@@H](n2cnc3c(N)nc(SC)nc32)[C@H](O)[C@@H]1O)OP(=O)([O-])[O-].[Na+].[Na+].[Na+] (some centres unmarked) [Compound 19A, 2MeS-adenosine-5′-O-(Pα-borano) diphosphate]
Compound-induced activation of [Ca2+], P2Y2, response class [6, 13]: nr | t1/2 to alkaline phosphatase [11]: about 6 h | Compound-induced activation of [Ca2+], P2Y6, response class [3, 14]: nr | Compound-induced activation of [Ca2+], P2Y4, response class [8]: nr | EC50 [4]: 0.038 µM | half-life in human blood serum ([12]; Example 10): > 24 h | percentage of the compound hydrolyzed ([12]; human blood serum, after 24 h): 25-40%

CSc1nc(N)c2ncn([C@@H]3O[C@H](COP(=O)(O)C(Cl)(Cl)P(=O)(O)O)[C@@H](O)[C@H]3O)c2n1 [Compound 17, 2-MeS-adenosine-5′-dichloromethylene-diphosphate]
pKa value of the terminal phosphonate [9]: about 6.7 | EC50 [4]: 3.1 µM

B[P@](=O)(OC[C@H]1O[C@@H](n2cnc3c(N)nc(SC)nc32)[C@H](O)[C@@H]1O)OP(=O)(O)CP(=O)(O)O [Compound 4B, 2MeS-adenosine-β,γ-CH2-5′-O-(1-boranotriphosphate)]
Compound-induced activation of [Ca2+], P2Y2, response class [6, 13]: nr | half-life in human blood serum [10]: 71.9 h | Compound-induced activation of [Ca2+], P2Y6, response class [3, 14]: sr | agonistic effect on P2Y6R [3]: slight agonistic effect | Compound-induced activation of [Ca2+], P2Y4, response class [8]: nr | EC50 [4]: 17.2 µM

B[P@](=O)(OC[C@H]1O[C@@H](n2cnc3c(N)nc(SC)nc32)[C@H](O)[C@@H]1O)OP(=O)(O)CP(=O)(O)O [Compound 4A, 2MeS-adenosine-β,γ-CH2-5′-O-(1-boranotriphosphate)]
activity at P2Y2R, in words [6]: inactivity | activities at the P2YRs tested [4]: insignificant activities
